Results from patent US20100119599A1 (ARCHER PHARMACEUTICALS, INC., priority 2006, published 2010).

Experiments:
[1] = test system: Aβ1-42; experiment: Measurement of Aβ1-42 in culture medium of 7W WT APP751 CHO cells by ELISA; type: cell-based, Chinese hamster; settings: for activity at 5 µM: Cricetulus griseus, Table 1, 5 μM test compound, CHO cells stably transfected with human APP751, culture medium, ELISA, control DMSO, 0 = no detectable amount, read-out: Aβ1-42 (% of control); for Aβ1-42 (% of control): CHO cells that overexpress APP751, zero = below the detection limit of the assay
[2] = test system: Aβ1-40; experiment: Measurement of Aβ1-40 in culture medium of 7W WT APP751 CHO cells by ELISA; type: cell-based, Chinese hamster; settings: for activity at 5 µM: Cricetulus griseus, Table 1, 5 μM test compound, CHO cells stably transfected with human APP751, culture medium, ELISA, control DMSO, 0 = no detectable amount; for Aβ1-40 (% of control): CHO cells that overexpress APP751, zero = below the detection limit of the assay
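Note: 5 µM test compound but RI-coded compounds at 10 µM for 24 hours.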

SMILES | activity at 5 µM [1] | activity at 5 µM [2] | Aβ1-42 (% of control) [1] | Aβ1-40 (% of control) [2]
COCCOC(=O)C1=C(C)NC2=C(C(=O)CC(c3ccc(OC)cc3)C2)C1c1ccc2c(c1)OCO2 (centres unmarked) [ST017094, 2-methoxyethyl 4-(2H-benzo[3,4-d]1,3-dioxolen-5-yl)-7-(4-methoxyphenyl)-2-methyl-5-oxo-1,4,6,7,8-pentahydroquinoline-3-carboxylate] | 73.8% | 68.9% | – | –
CCCCOC(=O)C1=C(C)NC2=C(C(=O)CCC2)C1c1ccc(Br)cc1 (centres unmarked) [ST017167, butyl 4-(4-bromophenyl)-2-methyl-5-oxo-1,4,6,7,8-pentahydroquinoline-3-carboxylate] | 50.5% | 79% | – | –
COc1ccc(C2CC(=O)C3=C(C2)NC(C)=C(C(=O)OC(C)C)C3c2ccc(OCc3ccccc3)cc2)cc1 (centres unmarked) [ST016961, methylethyl 7-(4-methoxyphenyl)-2-methyl-5-oxo-4-[4-(phenylmethoxy)phenyl]-1,4,6,7,8-pentahydroquinoline-3-carboxylate] | 89.5% | 41.8% | – | –
CC1=C(C(=O)Nc2ccccc2)C(c2cccs2)C(C#N)=C(SCC(=O)Nc2cc(C)cc(C)c2)N1 (centres unmarked) [RI_11] | – | – | 35.8 % of control | 52.1 % of control
CCCOC(=O)C1=C(C)NC2=C(C(=O)CCC2)C1c1cc(Br)ccc1OC (centres unmarked) [ST052364, propyl 4-(5-bromo-2-methoxyphenyl)-2-methyl-5-oxo-1,4,6,7,8-pentahydroquinoline-3-carboxylate] | 13.5% | 27% | – | –
CC1=C(C(=O)Nc2ccc(Cl)cc2)C(c2cccs2)C(C#N)=C(SCC(=O)Nc2ccc(C)c(Cl)c2)N1 (centres unmarked) [RI_60] | – | – | 71.1 % of control | 59.4 % of control
COC(=O)C1=C(C)NC2=C(C(=O)CC(c3cccs3)C2)C1c1cc(OC)ccc1OC (centres unmarked) [ST052389, methyl 4-(2,5-dimethoxyphenyl)-2-methyl-5-oxo-7-(2-thienyl)-1,4,6,7,8-pentahydroquinoline-3-carboxylate] | 44.9% | 78.3% | – | –
COc1ccccc1C1C(C(=O)OCCc2ccccc2)=C(C)NC2=C1C(=O)CCC2 (centres unmarked) [ST015110, 2-phenylethyl 4-(2-methoxyphenyl)-2-methyl-5-oxo-1,4,6,7,8-pentahydroquinoline-3-carboxylate] | 90.1% | 42.8% | – | –
CC1=C(C(=O)Nc2ccccc2)C(c2cccs2)C(C#N)=C(SCC(=O)NC2CCC2)N1 (centres unmarked) [RI_24] | – | – | 44.1 % of control | 80.8 % of control
CCC(C)c1ccccc1NC(=O)CSC1=C(C#N)C(c2ccsc2)C(C(=O)Nc2ccccc2)=C(C)N1 (centres unmarked) [RI_68] | – | – | 100 % of control | 74.6 % of control
CCOC(=O)C1=C(N)n2c(s/c(=C/c3ccccc3Cl)c2=O)=C(C#N)C1c1ccccc1Cl (centres unmarked) [ST215651, ethyl 5-amino-7-(2-chlorophenyl)-2-[(2-chlorophenyl)methylene]-8-cyano-3-oxo-4,7-dihydro-1,3-thiazolidino[3,2-a]pyridine-6-carboxylate] | – | – | 42.3 % of control | 80.92 % of control
CCc1cccc(NC(=O)CSC2=C(C#N)C(c3sccc3C)C(C(=O)Nc3ccccc3)=C(C)N2)c1 (centres unmarked) [RI_79] | – | – | 51.6 % of control | 55.46 % of control
CCOCCOC(=O)C1=C(C)NC2=C(C(=O)CCC2)C1c1ccc(OC(C)=O)cc1 (centres unmarked) [ST013435, 4-{3-[(2-ethoxyethyl)oxycarbonyl]-2-methyl-5-oxo-4-1,4,6,7,8-pentahydroquinolyl}phenyl acetate] | 70.1% | 64.7% | – | –
CCCOCCOC(=O)C1=C(C)NC2=C(C(=O)CC(C)(C)C2)C1c1ccc(Cl)c(Cl)c1 (centres unmarked) [ST052446, 2-propoxyethyl 4-(3,4-dichlorophenyl)-2,7,7-trimethyl-5-oxo-1,4,6,7,8-pentahydroquinoline-3-carboxylate] | 45.2% | 58.1% | – | –
CCOc1ccc(C2C(C(=O)OC)=C(C)NC3=C2C(=O)CC(c2ccc(OC)cc2)C3)cc1 (centres unmarked) [ST016974, methyl 4-(4-ethoxyphenyl)-7-(4-methoxyphenyl)-2-methyl-5-oxo-1,4,6,7,8-pentahydroquinoline-3-carboxylate] | 57.4% | 34.6% | – | –
COC(=O)C1=C(C)NC2=C(C(=O)CC(C)(C)C2)C1c1cccnc1 (centres unmarked) [ST013059, methyl 2,7,7-trimethyl-5-oxo-4-(3-pyridyl)-1,4,6,7,8-pentahydroquinoline-3-carboxylate] | 76.1% | 26.7% | – | –
CC1=C(C(=O)OCCc2ccccc2)C(c2ccccc2Br)C2=C(CC(c3ccccc3)CC2=O)N1 (centres unmarked) [ST015234, 2-phenylethyl 4-(2-bromophenyl)-2-methyl-5-oxo-7-phenyl-1,4,6,7,8-pentahydroquinoline-3-carboxylate] | 54.8% | 51.8% | – | –

SMILES | activity at 5 µM [1] | activity at 5 µM [2] | Aβ1-42 (% of control) [1] | Aβ1-40 (% of control) [2]
CCCOC(=O)C1=C(C)NC2=C(C(=O)CC(C)(C)C2)C1c1cccc(Cl)c1Cl (centres unmarked) [ST013206, propyl 4-(2,3-dichiorophenyl)-2,7,7-trimethyl-5-oxo-1,4,6,7,8-pentahydroquinoline-3-carboxylate] | 62.5% | 0% | – | –
COC(=O)C1=C(C)NC2=C(C(=O)CC(c3cccs3)C2)C1c1ccc(C(F)(F)F)cc1 (centres unmarked) [ST052493, methyl 2-methyl-5-oxo-7-(2-thienyl)-4-[4-(trifluoromethyl)phenyl]-1,4,6,7,8-pentahydroquinoline-3-carboxylate] | 57.1% | 39.9% | – | –
CCCCOC(=O)C1=C(C)NC2=C(C(=O)CCC2)C1c1cccc(Cl)c1 (centres unmarked) [ST013428, butyl 4-(3-chlorophenyl)-2-methyl-5-oxo-1,4,6,7,8-pentahydroquinoline-3-carboxylate] | 40.9% | 25.1% | – | –
CCN(CC)c1ccc(C2C(C(=O)OCCOC)=C(C)NC3=C2C(=O)CCC3)cc1 (centres unmarked) [ST013256, 2-methoxyethyl 4-[4-(diethylamino)phenyl]-2-methyl-5-oxo-1,4,6,7,8-pentahydroquinoline-3-carboxylate] | 92.8% | 60.2% | – | –
CC1=C(C(=O)OC2CCCCC2)C(c2cccc(Cl)c2)C2=C(CCCC2=O)N1 (centres unmarked) [ST015159, cyclohexyl 4-(3-chlorophenyl)-2-methyl-5-oxo-1,4,6,7,8-pentahydroquinoline-3-carboxylate] | 0% | 2.98% | – | –
N#CC1=C(N)n2c(s/c(=C/c3ccc(Cl)cc3Cl)c2=O)=C(C#N)C1c1ccc(Cl)cc1Cl (centres unmarked) [ST003360, 5-amino-7-(2,4-dichlorophenyl)-2-[(2,4-dichlorophenyl)methylene]-3-oxo-4,7-dihydro-1,3-thiazolidino[3,2-a]pyridine-6,8-dicarbonitrile] | – | – | 72.55 % of control | 63.37 % of control
COC(=O)C1=C(C)NC2=C(C(=O)CC(c3cccs3)C2)C1c1cc(OC)c(Br)cc1OC (centres unmarked) [ST045143, methyl 4-(4-bromo-2,5-dimethoxyphenyl)-2-methyl-5-oxo-7-(2-thienyl)-1,4,6,7,8-pentahydroquinoline-3-carboxylate] | 16% | 22.9% | – | –
CC1=C(C(=O)Nc2ccccc2)C(c2ccsc2)C(C#N)=C(SCC(=O)Nc2ccc(Br)cc2)N1 (centres unmarked) [RI_73] | – | – | 34.9 % of control | 24.3 % of control
CC1=C(C(=O)Nc2ccccc2)C(c2ccsc2)C(C#N)=C(SCC(=O)Nc2ccccc2C)N1 (centres unmarked) [RI_48] | – | – | 100 % of control | 86.5 % of control
CC1=C(C(=O)OCCOc2ccccc2)C(c2coc3ccc(C)cc3c2=O)C2=C(CCCC2=O)N1 (centres unmarked) [ST052330, 2-phenoxyethyl 2-methyl-4-(6-methyl-4-oxochromen-3-yl)-5-oxo-1,4,6,7,8-pentahydroquinoline-3-carboxylate] | 15.5% | 42.6% | – | –
CC1=C(C(=O)OC2CCCC2)C(c2ccc(C)o2)C2=C(CC(c3cccs3)CC2=O)N1 (centres unmarked) [ST051567, cyclopentyl 2-methyl-4-(5-methyl(2-furyl))-5-oxo-7-(2-thienyl)-1,4,6,7,8-pentahydroquinoline-3-carboxylate] | 85% | 60.4% | – | –
CCc1ccc(C2C(C(=O)OCCOc3ccccc3)=C(C)NC3=C2C(=O)CC(C)(C)C3)cc1 (centres unmarked) [ST014886, 2-phenoxyethyl 4-(4-ethylphenyl)-2,7,7-trimethyl-5-oxo-1,4,6,7,8-pentahydroquinoline-3-carboxylate] | 65.1% | 21.6% | – | –
CC1=C(C(=O)OCc2ccccc2)C(c2ccc(N(C)C)cc2)C2=C(CCCC2=O)N1 (centres unmarked) [ST013212, phenylmethyl 4-[4-(dimethylamino)phenyl]-2-methyl-5-oxo-1,4,6,7,8-pentahydroquinoline-3-carboxylate] | 93.7% | 50.8% | – | –
CC1=C(C(=O)OCCc2ccccc2)C(c2ccc(Cl)cc2Cl)C2=C(CCCC2=O)N1 (centres unmarked) [ST014884, 2-phenylethyl 4-(2,4-dichlorophenyl)-2-methyl-5-oxo-1,4,6,7,8-pentahydroquinoline-3-carboxylate] | 52.8% | 62% | – | –
CCCCCOC(=O)C1=C(C)NC2=C(C(=O)CC(C)(C)C2)C1c1ccc(Cl)cc1 (centres unmarked) [ST013054, pentyl 4-(4-chlorophenyl)-2,7,7-trimethyl-5-oxo-1,4,6,7,8-pentahydroquinoline-3-carboxylate] | 8.36% | 0% | – | –
N#CC1=C(N)N2C(=O)C(Cc3ccc(Br)cc3)SC2=C(C#N)C1c1ccc(Br)cc1 (centres unmarked) [RI_97] | – | – | 74.9 % of control | 76.7 % of control
COC(=O)C1=C(C)NC2=C(C(=O)CCC2)C1c1ccc(Cl)c([N+](=O)[O-])c1 (centres unmarked) [ST052361, methyl 4-(4-chloro-3-nitrophenyl)-2-methyl-5-oxo-1,4,6,7,8-pentahydroquinoline-3-carboxylate] | 63.2% | 84.1% | – | –
